{"source": "patent EP1067965B1", "about": "“PHARMACEUTICAL COMPOSITION FOR TREATING CEREBRAL APOPLEXY AND CRANIOCEREBRAL TRAUMA” (Bayer HealthCare AG, priority 1997, dated 1999)", "key": {"[1]": {"system": "isolierte Aortaringe des Kaninchens", "test": "Inhibition of KCl-induced contraction of isolated rabbit aortic rings", "assay_type": "cell-based", "settings": "KCl 1 x 10^-2 mol/l; mean ± standard deviation; Nimodipin value under a comparable set-up; read-out: EC50-Wert, Inhibition der KCl-induzierten Kontraktion der Kaninchen-Aortenringe", "source_text": "Im Allgemeinen heben Kalziumkanalantagonisten die KCl-induzierte Kontraktion isolierter Aortaringe des Kaninchens auf (vgl. Arzneim.-Forsch./Drug Res. 1992, 42, 795-797; J. Pharmacol. Exp.Ther. 1953, 108,129-143.).\nKaninchen beiderlei Geschlechts werden schmerzlos betäubt und entblutet. Der thorakale Teil der Aorta descendens wird ohne Verletzung der Endothelschicht freipräpariert und auf ca. 2 mm breite spiraienförmige Streifensegmente geschnitten und einzeln unter einer Anfangsbelastung von ca. 2 g in 10ml Carbogen-begaste Krebs-Bicarbonat-Pufferlösung (37°C) verbracht.\nKontraktionen werden isometrisch erfaßt und ausgewertet.\nDie funktionelle Integrität des Endotheliums wird durch Noradrenalin (1 x 10^-8 mol/l) induzierte Kontraktionen und durch Acetylcholin (1 x 10^-8 - 1 x 10^-5 mol/l) hervorgerufene Relaxation getestet. Nach einer Auswasch- und Ruhephase sowie Erreichen eines stabilen Basalwertes (ca. nach 2 Stunden) wird mit Zugabe von 0,25 ml KCl, bei einer Endkonzenration von 1 x 10^-2 mol/l eine submaximale (60-80%) Kontraktion der Aortastreifen ausgelöst. Die Testsubstanz wird während der Plateauphase der KCl induzierten Kontraktion in die Bäder appliziert (in steigender Dosierungen: 1 x 10^-12 - 1 x 10^-5 mol/l Endkonzentration) und die Wirkung auf den kontrahierten Gefäßstreifen gemessen. […]"}, "[2]": {"system": "Rattenmodell der permanenten fokalen cerebralen Ischämie (MCA-O)", "test": "Neuroprotection in the rat model of permanent focal cerebral ischaemia (MCA-O)", "assay_type": "in vivo, Ratte", "settings": "7 days survival, Placebo 146,69 ± 6,77", "source_text": "Unter allgemeiner Narkose (Isofluran) wird in der Mitte zwischen Auge und Ohr ein Hautschnitt gelegt und unter Durchtrennung der darunterliegenden Muskelpartien ein Zugang zum Schädel im Bereich des Foramen ovale geschaffen. Etwa 1 mm rostrodorsal dieser Öffnung wird der Schädelkalotte durchgebohrt, die darunterliegenden Hirnhäute eröffnet, und durch Elektrokoagulation die Arteria cerebri media und deren Nebenäste permanent verschlossen. Daraufhin wird die Kaumuskulatur in ihre ursprüngliche Lage gebracht. Die Muskel- und Hautwunde wird chirurgisch verschlossen und versorgt. Nach dem Aufwachen aus der Narkose werden die Tiere in ihren Heimkäfig zurückgesetzt. Im Verlauf der folgenden Stunden entwickelt sich im Versorgungsgebiet der Arteria cerebri media ein Infarkt, dessen Ausdehnung histologisch quantifiziert wird.\nNach 7 Tagen Überlebenszeit werden die Tiere getötet, das Gehirn entnommen und in auf -30°C gekühltem 2-Methylbutan eingefroren. Mit Hilfe eines Kryostatmikrotoms werden 20 µm dicke Schnitte in 500 µm Abstand im Infarktbereich hergestellt. Nach der Cresylechtviolett-Färbung der fixierten Gehirnschnitte ist das Infarktgebiet vom nicht betroffenen Gewebe deutlich zu unterscheiden. […]"}, "[3]": {"biological_target": "T1, 5-HT1A Rezeptor gekoppelte Adenylatcyclase-Aktivität (Rattus norvegicus, UniProt P19327)", "T1 construct": "an hippocampalen Zellmembranen der Ratte; from tissue; host or cells: rat hippocampus membranes", "T1 sequence (P19327 1-422)": "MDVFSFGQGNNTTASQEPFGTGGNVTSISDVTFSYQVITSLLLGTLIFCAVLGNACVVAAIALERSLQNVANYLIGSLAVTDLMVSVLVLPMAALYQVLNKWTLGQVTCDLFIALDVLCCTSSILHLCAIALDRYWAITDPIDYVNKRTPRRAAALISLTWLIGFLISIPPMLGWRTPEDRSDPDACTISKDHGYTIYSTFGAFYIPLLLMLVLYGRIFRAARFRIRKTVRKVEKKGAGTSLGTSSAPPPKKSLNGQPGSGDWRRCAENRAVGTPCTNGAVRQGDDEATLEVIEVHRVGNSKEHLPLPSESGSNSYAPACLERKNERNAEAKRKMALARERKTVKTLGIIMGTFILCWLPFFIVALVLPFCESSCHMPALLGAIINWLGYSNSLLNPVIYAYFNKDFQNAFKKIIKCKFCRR", "test": "Inhibition of forskolin-stimulated adenylate cyclase activity on hippocampal cell membranes", "assay_type": "biochemical", "settings": "Hippocampusmembranen der Ratte; 0,01 mM Forskolin; read-out: IC50-Wert, Inhibition der Forskolin-stimulierten Adenylatcyclase Aktivität", "experimental": "5-HT1A Rezeptor gekoppelte Adenylatcyclase-Aktivität wurde an hippocampalen Zellmembranen der Ratte mit der Methodik von De Vivo und Maayani (J. Pharmacol. Exp. Ther. 1986, 238, 248-253.) gemessen.\nDer Hippocampus wurde in 25 Volumen 0,3 M Sucroselösung (ergänzt mit 1mM EGTA, 5 mM EDTA, 5 mM Dithiothreitol und 20 mM Tris-HCl; pH 7,4 bei 25°C) in einem motorgetriebenen Potter-Elvehjem-Homogenisator zerkleinert. Das Homogenat wurde 10 min lang bei 1.000 g abzentrifugiert, danach der Überstand 10 min bei 39.000 g nochmals zentrifugiert. Das Pellet wurde im Homogenisationspuffer aufgenommen. Aliquots mit einem Proteingehalt von 1 mg/ml (gemessen nach Bradford Anal. Biochem. 1976, 72, 248-254.) wurden bei -140°C bis zur weiteren Verarbeitung aufbewahrt. Vor dem Assay wurde das aufgetaute Homogenat mit dem Potter-Elvehjem-Homogenisator nochmals homogenisiert. 50 µl Homogenat (mit ca. 50 µg Proteingehalt) wurden der vorgewärmten (5 min bei 30°C) Inkubationsmischung (100 mM NaCl, 2mM Magnesium Acetate 0,2 mM ATP, 1 mM cAMP, 0,01 mM GTP, 0,01 mM Forskolin, 80 mM Tris-HCl, 5 mM Creatine Phosphate, 0,8 U/µl Creatine Phosphokinase, 0,01 mM IBMX, 1 - 2 µCi α-[^32P]ATP) zupipettiert und so die Inkubation (10 min bei 30°C) gestartet.\nZur Messung der Adenylatcyclase-Aktivität wurde die Menge des gebildeten [^32P]cAMP nach Salomon (Adv. Cyclic Nucleotide Res. 1979, 10, 35-55.) bestimmt."}}, "data": [{"smiles": "COCCOC(=O)C1=C(C)NC(C)=C(C(=O)OC(C)C)C1c1cccc([N+](=O)[O-])c1", "note": "(racemic) [Nimodipin, (RS)-1,4-Dihydro-2,6-dimethyl-4-(3-nitrophenyl)-3,5-pyridindicarbonsäure-isopropylester-2-methoxyethylester]", "values": [{"measurement": "EC50", "setting": "[1]", "value": "2.9 to 4.3", "unit": "nM"}, {"measurement": "Infarktvolumen im cerebralen Cortex (Mittelwert ± S.E.M; mm^3)", "setting": "[2]; 0,003 mg/kg/Std i.v. infusion over 4 h directly after occlusion", "value": "120,87 ± 8,79 mm^3"}]}, {"smiles": "O=C1c2ccccc2S(=O)(=O)N1CCCCNCC1CCc2ccccc2O1", "note": "(single isomer, unassigned) [5-HT1A-Agonist*]", "values": [{"measurement": "IC50", "setting": "[3]", "value": 1.6, "unit": "nM"}, {"measurement": "Infarktvolumen im cerebralen Cortex (Mittelwert ± S.E.M; mm^3)", "setting": "[2]; i.v. infusion over 4 h directly after occlusion", "value": "104,79 ± 7,63 mm^3"}]}, {"smiles": "COC(=O)C1=C(C)NC(C)=C(C(=O)OC)C1c1ccccc1[N+](=O)[O-]", "note": "[Nifedipin]", "values": [{"measurement": "EC50", "setting": "[1]", "value": 3.58, "unit": "nM"}]}]}
